Key:
[1] = Selectivity index, ratio of CC50 for cytotoxicity against human HEp-2 cells to IC50 for antiviral activity against RSV A2 infected in human HEp-2 cells
Ebolavirus = assay: Antiviral activity against EBOV infected in human Huh-7 cells assessed as reduction in viral replication; assay type: functional, organism-based; conditions: Orthoebolavirus
[2] = system: Respiratory syncytial virus; assay: Antiviral activity against Respiratory syncytial virus; assay type: functional, organism-based; conditions: human respiratory syncytial virus
in vitro = conditions: monkey, Vero E6 cells
SARS-CoV [3] = assay: Antiviral activity against SARS-CoV infected in Vero E6 cells assessed as reduction in viral replication measured after 48 hrs by qRT-PCR assay; assay type: functional, organism-based; conditions: Severe acute respiratory syndrome-related coronavirus, Vero C1008, 48 h
SARS-CoV-2 [4] = assay: microbe, parasite or virus in culture; conditions: Severe acute respiratory syndrome coronavirus 2, Vero C1008
[5] = system: Middle East respiratory syndrome-related coronavirus; assay: Antiviral activity against MERS-CoV infected in HAE cells; assay type: functional, organism-based
[6] = biological target: T1, Human immunodeficiency virus type 1 reverse transcriptase (Human immunodeficiency virus 1, UniProt Q72547); assay: Inhibition of HIV-1 reverse transcriptase associated RNA-dependent DNA polymerase
SARS-CoV-2 [7] = assay: Antiviral activity against SARS-CoV-2 […] infected in human 293TA cells assessed as reduction of viral growth measured after 48 hrs by luciferase assay; assay type: functional, organism-based; conditions: Severe acute respiratory syndrome coronavirus 2, 293TA
SARS-CoV-2 [8] = assay: Antiviral activity against SARS-CoV-2 B.1.1.7 Alpha infected in human Calu-3 cells assessed as inhibition of viral infection preincubated for 1 hr followed by viral infection measured after 48 hrs by Hoechst 33342 staining based analysis; assay type: functional, organism-based; conditions: Severe acute respiratory syndrome coronavirus 2, B.1.1.7, Calu-3
SARS-CoV-2 [9] = assay: Antiviral activity against SARS-CoV-2 Omicron assessed as reduction of viral growth; assay type: functional, organism-based; conditions: Severe acute respiratory syndrome coronavirus 2, Omicron
SARS-CoV-2 [10] = assay: Antiviral activity against SARS-CoV-2 […] B.1.617.2 delta infected in human 293TA cells assessed as reduction of viral growth measured after 48 hrs by luciferase assay; assay type: functional, organism-based; conditions: Severe acute respiratory syndrome coronavirus 2, 293TA
[11] = biological target: Hepatitis C virus NS5B RNA-dependent RNA polymerase (Hepatitis C virus, UniProt Q8JXU8); assay: Inhibition of Hepatitis C virus NS5B polymerase; design: species or system Hepacivirus hominis
[12] = biological target: Human immunodeficiency virus type 1 protease (Human immunodeficiency virus 1, UniProt Q72874); assay: Inhibition of HIV-1 protease
[13] = biological target: T1, Human immunodeficiency virus type 1 reverse transcriptase; assay: Inhibition of wild type HIV-1 reverse transcriptase
[14] = system: Human immunodeficiency virus 2; assay: Antiviral activity against HIV-2 D194 infected in PBMC assessed as inhibition of viral growth; assay type: functional, organism-based; conditions: Human immunodeficiency virus 2, D194, PBMC
SARS-CoV [15] = assay: Antiviral activity against SARS-CoV-1 infected in African green monkey Vero E6 cells expressing TMPRSS2; assay type: functional, organism-based; conditions: Severe acute respiratory syndrome-related coronavirus, Vero C1008
SARS-CoV-2 [16] = assay: Antiviral activity against SARS-CoV-2 infected in African green monkey Vero E6 cells expressing TMPRSS2 assessed as reduction in virus-induced cytopathic effect measured after 48 hrs by cellular ATP assay; assay type: functional, organism-based; conditions: Severe acute respiratory syndrome coronavirus 2, Vero C1008, 48 h
[17] = Cytotoxicity against human MT4 cells assessed as reduction in cell viability treated for 5 days by MTT assay; assay type: toxicity, cell-based; conditions: time 5 day
[18] = system: Human immunodeficiency virus 1; assay: Antiviral activity against HIV-1 3B infected in human MT4 cells assessed as reduction in virus-induced cytopathic effect incubated for 5 days by MTT assay; assay type: functional, organism-based; conditions: Human immunodeficiency virus 1, 3B, MT4, 120 h
[19] = Oral bioavailability in rat; assay type: ADME, organism-based; conditions: in vivo
Human coronavirus OC43 = assay: Antiviral activity against HCoV-OC43; assay type: functional, organism-based; conditions: Betacoronavirus 1
[20] = Oral bioavailability in beagle dog at 2 mg/kg; assay type: ADME, organism-based, Canis lupus familiaris; conditions: in vivo
SARS-CoV-2 [21] = assay: Antiviral activity against SARS-CoV-2 assessed as inhibition of viral replication; assay type: functional, organism-based; conditions: Severe acute respiratory syndrome coronavirus 2

Chain of Hepatitis C virus NS5B RNA-dependent RNA polymerase (Q8JXU8 whole entry): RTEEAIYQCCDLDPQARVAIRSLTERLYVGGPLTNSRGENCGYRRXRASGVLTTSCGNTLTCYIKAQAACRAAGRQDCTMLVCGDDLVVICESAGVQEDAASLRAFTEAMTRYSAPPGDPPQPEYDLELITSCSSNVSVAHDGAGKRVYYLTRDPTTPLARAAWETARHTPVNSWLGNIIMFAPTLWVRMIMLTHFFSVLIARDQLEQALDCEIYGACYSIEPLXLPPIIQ

Compound: CCC(CC)COC(=O)[C@H](C)N[P@](=O)(OC[C@H]1O[C@@](C#N)(c2ccc3c(N)ncnn23)[C@H](O)[C@@H]1O)Oc1ccccc1
- selectivity ratio [1]: 395
- EC50 (Ebolavirus): 12 nM
- EC50 [2]: 21 nM
- selectivity ratio (in vitro): > 100
- EC50 (SARS-CoV [3]): 69 nM
- EC50 (SARS-CoV-2 [4]): 770 nM
- EC50 [5]: 25 nM

Compound: C[C@@]1(O)[C@H](O)[C@@H](CO)O[C@H]1n1ccc(N)nc1=O
- IC50 [6]: 1050 nM

Compound: O=C[C@H](C[C@@H]1CCNC1=O)NC(=O)[C@H](CC1CCCCC1)NC(=O)c1cc2ccccc2[nH]1
- EC50 (SARS-CoV-2 [7]): 280 nM
- EC50 (SARS-CoV-2 [8]): 390 nM
- EC50 (SARS-CoV-2 [9]): 33 nM
- EC50 (SARS-CoV-2 [10]): 270 nM

Compound: CC(C)(C)[C@H](NC(=O)C(F)(F)F)C(=O)N1C[C@H]2[C@@H]([C@H]1C(=O)N[C@H](C#N)C[C@@H]1CCNC1=O)C2(C)C
- EC50 (SARS-CoV-2 [7]): 490 nM
- EC50 (SARS-CoV-2 [8]): 820 nM
- EC50 (SARS-CoV-2 [9]): 33 nM
- EC50 (SARS-CoV-2 [10]): 780 nM

Compound: O=C[C@H](C[C@@H]1CCNC1=O)NC(=O)[C@H](Cc1ccccc1)NC(=O)c1cc2ccccc2[nH]1
- EC50 (SARS-CoV-2 [9]): 33 nM

Compound: [N-]=[N+]=N[C@]1(CO)O[C@@H](n2ccc(N)nc2=O)[C@@H](O)[C@@H]1O
- IC50 [11]: 1280 nM
- IC50 [12]: 171 nM
- EC50 [13]: 0.03 nM
- EC50 [14]: 0.018 nM

Compound: [2H][C@](C(=O)N[C@@H](C)c1ccc(F)cc1)(c1cccnc1)N(C(=O)C(C)=O)c1ccc2c(c1)oc1ccccc12
- EC50 (SARS-CoV-2 [9]): 33 nM

Compound: O=C(NCc1cccs1)[C@@H]1CN(C(=O)c2cccnc2)CCN1c1ccc(Cl)c(Cl)c1
- EC50 (SARS-CoV-2 [9]): 33 nM

Compound: Cn1cnc(Cn2c(=O)[nH]/c(=N\c3cc4cn(C)nc4cc3Cl)n(Cc3cc(F)c(F)cc3F)c2=O)n1
- EC50 (SARS-CoV [15]): 1900 nM
- EC50 (SARS-CoV-2 [16]): 350 nM

Compound: O=C[C@H](C[C@@H]1CCNC1=O)NC(=O)[C@@H]1[C@H]2CCC[C@H]2CN1C(=O)CCc1cc(F)cc(F)c1
- EC50 (SARS-CoV-2 [9]): 33 nM

Compound: [2H]c1cc([C@]2(C#N)O[C@H](COC(=O)C(C)C)[C@@H](OC(=O)C(C)C)[C@H]2OC(=O)C(C)C)n2ncnc(N)c12
- CC50 at 120 h [17]: 280000 nM
- EC50 [18]: 350 nM
- bioavailability [19]: 49.9%

Compound: [N-]=[N+]=N[C@]1(COP(=O)(O)OP(=O)(O)OP(=O)(O)O)O[C@@H](n2ccc(N)nc2=O)[C@@H](F)[C@@H]1O
- EC50 (Human coronavirus OC43): 4300 nM
- EC50 [13]: 0.03 nM
- bioavailability [20]: 82.7%
- EC50 [14]: 0.018 nM
- EC50 (SARS-CoV-2 [21]): 1200 nM

From ChEMBL document CHEMBL5335778, “Bench-to-bedside: Innovation of small molecule anti-SARS-CoV-2 drugs in China” (Eur J Med Chem, 2023)
